Test results: patent US20090298793A1, “Acylgycerophospholipids for treating symptoms concomitant with cancer” (KTB TUMORFORSCHUNGSGESELLSCHAFT MBH, priority 2005, published 2009)

Experiments:
[1] = system: human kidney cell carcinoma RXF 486; assay: Course of weight of naked mice bearing cachexia-inducing human kidney cell carcinoma RXF 486; format: in vivo; details: 33 mg/kg DPPC p.o., days 0-4, 7-11, 14, 17, 18; liposomal dispersion in saline; n=3; p <0.001
Text: Tumors from the human kidney cell carcinoma RXF 486 have a string cachexia-inducing effect.
Female athymic BALB/c nude mice (nu/nu) (Charles River, Frederick, Md.) at the age of 8 to 10 weeks were employed. […] They were allowed water and rodent food (Altromin, Lage, Germany) ad libitum.
Fragments of 3-5 mm (in diameter) of the human kidney cell carcinoma RXF 486 were subcutaneously grafted between the animals' front and rear flanks. The therapy experiments were begun when the tumors had reached a size of 30-40 mm^3.
For the therapy, synthetic PL (dipalmitoylphosphatidylcholine, DPPC; Sygena, Liestal, Switzerland) was employed. It was dispersed in 0.9% (w/v) saline in a concentration of 33 mg/ml (ultrasonic dispersion in 50 ml Falcon tube) to provide a heterogeneous liposomal dispersion. For the oral administration (p.o.), the dispersion was adjusted to 3.3 mg/ml with saline.
On experiment days 0-4, 7-11, 14, 17 and 18, the animals were treated with 33 mg each per kg of body weight of DPPC p.o. by a stomach tube (application volume: 10 ml/kg). The control animals only obtained saline. The weight of the animals was determined on days 0, 2, 4, 7, 9, 11, 14, 18, 21, 25, 26 and 29 and is shown in FIG. 1 in % of the weight on day 0.

[2] = system: tumor cells; details: Nagami et al., Bioorganic & Medicinal Chemistry Letters 16: 782-785 (2006); cited from earlier work

SMILES | weight loss as compared to an untreated control group [1] | apoptosis and necrosis in tumor cells [2]
CCCCCCCCCCCCCCCC(=O)OC[C@H](COP(=O)([O-])OCC[N+](C)(C)C)OC(=O)CCCCCCCCCCCCCCC [DPPC, dipalmitoylphosphatidylcholine] | virtually stopped | does not show such an effect
CCCCCCCCCCCCCC(=O)OC[C@H](COP(=O)([O-])OCC[N+](C)(C)C)OC(=O)CCCCCCCCCCCCC [dimyristoyl-PC, reference compound] | – | produces apoptosis and necrosis
